# Patent EP0424670B1, “ZNS-active hexapeptides with antiamnestic activity” (HOECHST AKTIENGESELLSCHAFT, priority 1989, dated 1995)
# Where a SMILES comes first, the peptide text is derived from it.
# Tests used:
# [1] = stability in water at 80°C for 8 days, checked by HPLC; type: physicochemical; details: 200 mg in 20 ml water, 8 days at 80°C, freeze-dried, HPLC detection at 220 nm
# Description: • a) 200 mg Ac-Met(O₂)-Glu-His-Phe-D-Lys-Phe-NH(CH₂)₈-NH₂ · 2 CH₃COOH wurden in 20 ml Wasser gelöst und 8 Tage auf 80°C erhitzt. Nach dem Abkühlen wurde gefriergetrocknet.
# [2] = tested on: Scopolamin-induzierte Amnesie; experiment: inhibitory (passive) avoidance test (step-through model), reversal of scopolamine-induced amnesia; type: in vivo, Mäusen; details: Mus musculus, po, mice, comparison compound, read-out: MED (minimal effektive Dosis)
# Description: (§1) Die erfindungsgemäße Verbindung ist aufgrund ihrer pharmakologischen Eigenschaften für die Behandlung cognitiver Dysfunktionen unterschiedlicher Genese, wie sie z.B. bei der Alzheimer'schen Krankheit oder der senilen Demenz auftreten, geeignet. Die Verbesserung cognitiver Funktionen durch die erfindungsgemäßen Verbindungen (nootrope Wirkung) wurde im Tierexperiment an Mäusen mittels des inhibitory (passive) avoidance-Tests (step-through-Modell) und an Ratten mittels des radial-maze-Tests (8-armiger radialer Irrgarten) geprüft. Es handelt sich hierbei um literaturbeschriebene Standardtests zur Prüfung von Lern-und Gedächtnisfunktionen im Tierexperiment. (Inhibitory avoidance J. Bures, O. Buresova und J. Huston in "Techniques and Basic Experiments for the Study of Brain and Behavior", Elsevier Scientific Publishers, Amsterdam 1983; Radial Maze: U. Stäubli, M. Baudry und G. Lynch, Behavioral and Neural Biology 40, 58-69 (1984).)
# (§2) Entsprechend den genannten Literaturangaben wird eine Substanz dann als nootrop wirksam bezeichnet, wenn sie bei den Versuchstieren der durch Scopolamin, Elektroschock oder Inhibitoren der Proteinsynthese induzierte Erhöhung der Fehlerrate in diesen Tests entgegenwirkt oder sie gar aufzuheben vermag.
# (§3) Die Versuche wurden nach den obenbeschriebenen Testverfahren durchgeführt. […]
# [3] = tested on: Scopolamin-induzierte Amnesie; experiment: radial-maze test (8-arm radial maze), reversal of scopolamine-induced amnesia; type: in vivo, Ratten; details: Rattus norvegicus, po, rats, comparison compound, read-out: MED (minimal effektive Dosis)
# Description: as §1, §2, §3
Zersetzung (HPLC-Untersuchung) [1],SMILES,minimal effective dose [2],minimal effective dose [3]
keine Zersetzung,CC(=O)N[C@@H](CCS(C)(=O)=O)C(=O)N[C@@H](CCC(=O)O)C(=O)N[C@@H](Cc1c[nH]cn1)C(=O)N[C@@H](Cc1ccccc1)C(=O)N[C@H](CCCCN)C(=O)N[C@@H](Cc1ccccc1)C(=O)NCCCCCCCCN [Ac-Met(O₂)-Glu-His-Phe-D-Lys-Phe-NH-(CH₂)₈-NH₂ · 2 CH₃COOH] (HELM PEPTIDE1{[ac].[CS(=O)(=O)CC[C@H](N[*:1])C(=O)[*:2]].E.H.F.[dK].F.[NCCCCCCCCN[*:1]]}$$$$V2.0),,
starke Zersetzung,CS(=O)(=O)CC[C@H](N)C(=O)N[C@@H](CCC(=O)O)C(=O)N[C@@H](Cc1c[nH]cn1)C(=O)N[C@@H](Cc1ccccc1)C(=O)N[C@H](CCCCN)C(=O)N[C@@H](Cc1ccccc1)C(=O)NCCCCCCCCN [H-Met(O₂)-Glu-His-Phe-D-Lys-Phe-NH-(CH₂)₈-NH₂] (HELM PEPTIDE1{[CS(=O)(=O)CC[C@H](N)C(=O)[*:2]].E.H.F.[dK].F.[NCCCCCCCCN[*:1]]}$$$$V2.0),,
,"NC(=O)CN1CCCC1=O [Piracetam, 2-Oxo-1-pyrrolidinylessigsäureamid]",500 to 1000 mg/kg,500 to 1000 mg/kg
